Values after ≈ are worked out from the molar mass of the structure shown. Active and inactive are the calls of the source. No cut-off for these calls is given here.
Key:
Pseudomonas aeruginosa [1] = experiment: Antibacterial activity against Pseudomonas aeruginosa ATCC 27853 assessed as inhibition of bacterial growth incubated for 18 to 24 hrs by broth microdilution method; format: functional; conditions: time 18-24 hrs
Escherichia coli [2] = experiment: Bactericidal activity against Escherichia coli ATCC BAA-2523 assessed as reduction in bacterial count at 4 times MIC measured after 2 hrs by time-kill assay; format: functional, organism-based
Escherichia coli [3] = experiment: Antibacterial activity against Escherichia coli ATCC BAA-2523 assessed as inhibition of bacterial growth incubated for 18 to 24 hrs by broth microdilution method; format: functional; conditions: time 18-24 hrs
Klebsiella pneumoniae [4] = experiment: Antibacterial activity against carbapenem resistant Klebsiella pneumoniae clinical isolate 19-15 assessed as inhibition of bacterial growth incubated for 18 to 24 hrs by broth microdilution method; format: functional; conditions: time 18-24 hrs
[5] = Acute toxicity in ICR mouse assessed as animal death at 16 mg/kg, iv administered into tail vein and measured after 0.5 to 1 mins; format: organism-based; conditions: in vivo, time 0.5-1 min
Escherichia coli [6] = experiment: Potentiation of rifampicin induced antibacterial activity in Escherichia coli ATCC 25922 assessed as rifampicin MIC at 0.015 ug/ml incubated for 18 to 24 hrs by broth microdilution method (reference value: 2 ug/ml); format: functional; conditions: dose 0.015 µg/ml, time 18-24 hrs
[7] = Clearance in overnight fasted Sprague-Dawley rat at 4 mg/kg, ip measured for 24 hrs by LC-MS/MS analysis; format: ADME, organism-based; conditions: in vivo
Escherichia coli [8] = experiment: Bactericidal activity against Escherichia coli ATCC BAA-2523 assessed as log reduction in bacterial count by measuring reduction in CFU/ml at 4 times MIC measured after 24 hrs by time-kill assay; format: functional
Escherichia coli [9] = experiment: Potentiation of rifampicin induced antibacterial activity in Escherichia coli ATCC 25922 assessed as rifampicin MIC at 0.06 ug/ml incubated for 18 to 24 hrs by broth microdilution method (reference value: 2 ug/ml); format: functional; conditions: dose 0.06 µg/ml, time 18-24 hrs
Escherichia coli [10] = experiment: Potentiation of rifampicin induced antibacterial activity in Escherichia coli ATCC 25922 assessed as rifampicin MIC at 1 ug/ml incubated for 18 to 24 hrs by broth microdilution method (reference value: 2 ug/ml); format: functional; conditions: dose 1 µg/ml, time 18-24 hrs
Escherichia coli [11] = experiment: Antibacterial activity against Escherichia coli NCTC 13353 assessed as inhibition of bacterial growth incubated for 18 to 24 hrs by broth microdilution method; format: functional; conditions: time 18-24 hrs
Pseudomonas aeruginosa [12] = experiment: Antibacterial activity against carbapenem resistant Pseudomonas aeruginosa clinical isolate 19-3 assessed as inhibition of bacterial growth incubated for 18 to 24 hrs by broth microdilution method; format: functional; conditions: time 18-24 hrs
[13] = Cytotoxicity against human HK-2 cells assessed as inhibition of cell growth incubated for 72 hrs by CCK-8 assay; format: toxicity, cell-based
Klebsiella pneumoniae [14] = experiment: Antibacterial activity against carbapenem resistant Klebsiella pneumoniae clinical isolate 19-17 assessed as inhibition of bacterial growth incubated for 18 to 24 hrs by broth microdilution method; format: functional; conditions: time 18-24 hrs
[15] = Acute toxicity in ICR mouse administered into tail vein and measured twice daily over 1 week; conditions: in vivo, route iv, time 1 weeks

Compound: CCCCCCC[C@@H](O)CC(=O)N[C@H](CCN)C(=O)N[C@H]1CCNC(=O)[C@H]([C@@H](C)O)NC(=O)[C@H](CCN)NC(=O)[C@H](CCN)NC(=O)[C@H]([C@@H](C)O)NC(=O)[C@@H](Cc2ccccc2)NC(=O)[C@H](CCN)NC1=O
- MIC (Pseudomonas aeruginosa [1]): 0.25 µg/mL (≈ 0.245 µM)
- Activity (Escherichia coli [2]): Active
- MIC (Escherichia coli [3]): 0.5 µg/mL (≈ 0.49 µM)
- MIC (Klebsiella pneumoniae [4]): 4 µg/mL (≈ 3.92 µM)
- Activity [5]: Toxic
- MIC (Escherichia coli [6]): 0.125 µg/mL
- CL/F [7]: 3.8 mL/min/kg
- log(activity) (Escherichia coli [8]): 0.6
- MIC (Escherichia coli [9]): ≤ 0.06 µg/mL
- MIC (Escherichia coli [10]): ≤ 0.06 µg/mL
- MIC (Escherichia coli [11]): 2 µg/mL (≈ 1.96 µM)
- MIC (Pseudomonas aeruginosa [12]): 0.5 µg/mL (≈ 0.49 µM)
- IC50 at 72 h [13]: 414 µg/mL (≈ 406 µM)
- MIC (Klebsiella pneumoniae [14]): 8 µg/mL (≈ 7.84 µM)
- LD50 at 168 h [15]: 12.4 mg/kg
